Earlier results on five compounds are cited in US20190275270A1, “SYSTEM AND METHOD FOR ARRESTING DEBILITATING MIGRAINE EVENTS” (priority 2018, published 2019).

What is called IC50 is the midpoint of a concentration-inhibition curve.

In one data set the test system is migraine incidences. To be noted: used in a preventative context.
The test system of data set [1] is nitric oxide (NO) production. The settings on record: read-out: inhibits NO production, IC50.
Data set [2] addresses T1, CB2 (Homo sapiens, UniProt P34972).
Data set [3] addresses T2, CB1 (Homo sapiens, UniProt P21554).
Data set [4] concerns the target T1, CB2. The source holds these as a separate data set.
Data set [5] has as its target T2, CB1. The source holds these as a separate data set.

T2 sequence (P21554 whole entry, species assumed): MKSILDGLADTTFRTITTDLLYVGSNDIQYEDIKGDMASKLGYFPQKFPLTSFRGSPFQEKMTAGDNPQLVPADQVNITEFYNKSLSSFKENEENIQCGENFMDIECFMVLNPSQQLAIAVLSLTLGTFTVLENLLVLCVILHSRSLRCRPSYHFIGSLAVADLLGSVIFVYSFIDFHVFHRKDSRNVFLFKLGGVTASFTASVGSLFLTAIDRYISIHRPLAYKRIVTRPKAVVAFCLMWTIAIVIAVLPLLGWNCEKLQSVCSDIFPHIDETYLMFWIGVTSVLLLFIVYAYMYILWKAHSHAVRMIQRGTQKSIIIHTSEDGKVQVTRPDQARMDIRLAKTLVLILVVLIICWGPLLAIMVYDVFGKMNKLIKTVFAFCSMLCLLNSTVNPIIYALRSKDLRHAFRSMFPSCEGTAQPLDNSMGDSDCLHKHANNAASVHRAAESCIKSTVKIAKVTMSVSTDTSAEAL
T1 sequence (P34972 whole entry, species assumed): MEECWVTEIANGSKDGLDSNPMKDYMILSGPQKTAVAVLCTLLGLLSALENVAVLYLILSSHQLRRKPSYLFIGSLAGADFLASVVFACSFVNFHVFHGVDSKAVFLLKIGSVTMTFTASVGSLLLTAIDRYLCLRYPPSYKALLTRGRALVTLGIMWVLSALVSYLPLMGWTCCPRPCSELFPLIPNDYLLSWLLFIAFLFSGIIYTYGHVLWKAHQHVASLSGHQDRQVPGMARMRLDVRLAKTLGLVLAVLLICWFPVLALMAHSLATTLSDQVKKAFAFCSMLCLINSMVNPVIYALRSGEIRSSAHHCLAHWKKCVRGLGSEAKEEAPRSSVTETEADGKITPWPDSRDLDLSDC

Consider `C=C(C)[C@@H]1CCC(C)=C[C@H]1c1c(O)cc(CCCCC)cc1O` [CBD, cannabidiol], for which, in the data set on migraine incidences, the “cut in migraine incidences” value was “more than 50%”. On to `C=CCc1ccc(O)c(-c2cc(CC=C)ccc2O)c1` [Magnolol], for which the IC50 in data set [1] is approximately 6.2 µM. Moreover, the “activity at CB2” value at CB2 [2] is listed as “partial agonist”. In the case of `CCCCCCC[C@@H](C/C=C/CCC(=O)N(C)C/C(=C/Cl)C/C(=C\C(=O)N1CC(O)CC1=O)OC)OC` (stereo partly drawn) [Malyngamide B], the “binding to CB1” value at CB1 [3] is given as “moderate potencies”. The “binding to CB2” value on CB2 [4] was “moderate potencies”. Take `C=CCc1ccc(O)c(-c2ccc(O)c(CC=C)c2)c1` [honokiol]: the “activity at CB2” value on CB2 [2] is on record as “antagonistic properties”. Also, the “activity at CB1” value at CB1 [5] is recorded as “full agonistic activity”. Turning to caryophyllene, the “binding to CB1” value on CB1 [3] is reported as “binds”. In addition, the “binding to CB2” value on CB2 [4] is “binds”.
